In PubChem BioAssay AID330 (DTP/NCI, 2004):
Values joined by “and” are separate entries in the source; they are usually repeats but may differ in a detail not shown here. Equal entries are not always repeated. Inconclusive results and toxic doses are left out. The calls were made as follows: active = survival T/C of 150% or more; inactive = T/C below 125% in these data.

Test system: P388 leukemia ip, CD2F1 mice, survival T/C
Test: NCI In Vivo Anticancer Drug Screen. Data for tumor model P388 Leukemia (intraperitoneal) in CD2F1 (CDF1) mice
Details: endpoint: median survival time, higher = longer survival
How it was run: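 Mice carrying the transplanted tumor received test compound or vehicle. Survival was recorded in each group, and the value is the treated-group measurement divided by that of the vehicle-treated control group.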

[1] = dose: 25.0 mg/kg/injection, schedule: Q01DX009 (ip), vehicle: distilled water + Tween-80
[2] = dose: 50.0 mg/kg/injection, schedule: Q01DX009 (ip), vehicle: distilled water + Tween-80
[3] = dose: 100.0 mg/kg/injection, schedule: Q01DX009 (ip), vehicle: distilled water + Tween-80
[4] = dose: 200.0 mg/kg/injection, schedule: Q01DX009 (ip), vehicle: distilled water + Tween-80
[5] = dose: 50.0 mg/kg/injection, schedule: Q01DX005 (ip), vehicle: Klucel (hydroxypropylcellulose) (HPC)
[6] = dose: 100.0 mg/kg/injection, schedule: Q01DX005 (ip), vehicle: Klucel (hydroxypropylcellulose) (HPC)
[7] = dose: 200.0 mg/kg/injection, schedule: Q01DX005 (ip), vehicle: Klucel (hydroxypropylcellulose) (HPC)
[8] = dose: 25.0 mg/kg/injection, schedule: Q01DX009 (ip), vehicle: saline with Tween-80
[9] = dose: 50.0 mg/kg/injection, schedule: Q01DX009 (ip), vehicle: saline
[10] = dose: 100.0 mg/kg/injection, schedule: Q01DX009 (ip), vehicle: saline
[11] = dose: 50.0 mg/kg/injection, schedule: Q01DX009 (ip), vehicle: saline with Tween-80
[12] = dose: 100.0 mg/kg/injection, schedule: Q01DX009 (ip), vehicle: saline with Tween-80
[13] = dose: 50.0 mg/kg/injection, schedule: Q01DX005 (ip), vehicle: saline with Tween-80
[14] = dose: 100.0 mg/kg/injection, schedule: Q01DX005 (ip), vehicle: saline with Tween-80
[15] = dose: 200.0 mg/kg/injection, schedule: Q01DX005 (ip), vehicle: saline with Tween-80
[16] = dose: 60.0 mg/kg/injection, schedule: Q01DX005 (ip), vehicle: saline with Tween-80
[17] = dose: 120.0 mg/kg/injection, schedule: Q01DX005 (ip), vehicle: saline with Tween-80
[18] = dose: 240.0 mg/kg/injection, schedule: Q01DX005 (ip), vehicle: saline with Tween-80

Measured: T/C

CC(C)CCCCCCCCCCCCC(=O)NC1C(C)OC(Nc2ncnc3nc[nH]c23)C(O)C1O (stereo not drawn)
inactive: dose: 0.5 mg/kg/injection, schedule: Q01DX009 (ip), vehicle: other 107 % of control | dose: 1.0 mg/kg/injection, schedule: Q01DX009 (ip), vehicle: other 109 % of control | dose: 2.0 mg/kg/injection, schedule: Q01DX009 (ip), vehicle: other 98 % of control | dose: 4.0 mg/kg/injection, schedule: Q01DX009 (ip), vehicle: other 106 % of control | dose: 6.25 mg/kg/injection, schedule: Q01DX009 (ip), vehicle: other 104 % of control | dose: 8.0 mg/kg/injection, schedule: Q01DX009 (ip), vehicle: other 106 % of control | dose: 12.5 mg/kg/injection, schedule: Q01DX009 (ip), vehicle: other 91 % of control | dose: 25.0 mg/kg/injection, schedule: Q01DX009 (ip), vehicle: other 88 % of control | dose: 50.0 mg/kg/injection, schedule: Q01DX009 (ip), vehicle: other 91 % of control

CNC(=O)OCC1=C(COC(=O)NC)C2OC1C(C(=O)OC)=C2c1ccc(Cl)cc1 (stereo not drawn)
inactive: dose: 1.56 mg/kg/injection, schedule: Q01DX009 (ip), vehicle: distilled water + Tween-80 100 % of control | dose: 3.13 mg/kg/injection, schedule: Q01DX009 (ip), vehicle: distilled water + Tween-80 92 % of control | dose: 6.25 mg/kg/injection, schedule: Q01DX009 (ip), vehicle: distilled water + Tween-80 108 % of control | dose: 12.5 mg/kg/injection, schedule: Q01DX009 (ip), vehicle: distilled water + Tween-80 90 % of control and 94 % of control | [1] 88 % of control | [2] 88 % of control | [3] 88 % of control | [4] 101 % of control

NNC(=O)CS(=O)(=O)Nc1ncccn1
inactive: [5] 100 % of control | [6] 100 % of control | [7] 100 % of control

CC(=O)O[C@@H]1C[C@@]2(C)C(C)(C)C(=O)C=C[C@]2(C)[C@H]2CC[C@]3(C)C(=CC(=O)C3c3ccoc3)[C@]12C (stereo partly drawn)
inactive: dose: 8.5 mg/kg/injection, schedule: Q01DX005 (ip), vehicle: Klucel (hydroxypropylcellulose) (HPC) 104 % of control | dose: 17.0 mg/kg/injection, schedule: Q01DX005 (ip), vehicle: Klucel (hydroxypropylcellulose) (HPC) 96 % of control | dose: 34.0 mg/kg/injection, schedule: Q01DX005 (ip), vehicle: Klucel (hydroxypropylcellulose) (HPC) 98 % of control | dose: 68.0 mg/kg/injection, schedule: Q01DX005 (ip), vehicle: Klucel (hydroxypropylcellulose) (HPC) 92 % of control | dose: 136.0 mg/kg/injection, schedule: Q01DX005 (ip), vehicle: Klucel (hydroxypropylcellulose) (HPC) 92 % of control

CSc1ccc2ccccc2c1/C=[N+](/[O-])c1ccccc1
inactive: dose: 60.0 mg/kg/injection, schedule: Q01DX005 (ip), vehicle: Klucel (hydroxypropylcellulose) (HPC) 95 % of control | dose: 120.0 mg/kg/injection, schedule: Q01DX005 (ip), vehicle: Klucel (hydroxypropylcellulose) (HPC) 97 % of control | dose: 240.0 mg/kg/injection, schedule: Q01DX005 (ip), vehicle: Klucel (hydroxypropylcellulose) (HPC) 96 % of control

CN1CCc2c3n(c4ccccc24)C(=O)CCC31 (stereo not drawn)
inactive: dose: 6.25 mg/kg/injection, schedule: Q01DX009 (ip), vehicle: saline with Tween-80 120 % of control | dose: 12.5 mg/kg/injection, schedule: Q01DX009 (ip), vehicle: saline with Tween-80 120 % of control | [8] 120 % of control

CC[N+]1([O-])CCOCC1
inactive: [9] 97 % of control | [10] 101 % of control | dose: 200.0 mg/kg/injection, schedule: Q01DX009 (ip), vehicle: saline 113 % of control

C/C=C(/C)C(=O)O[C@H]1C[C@H](C(C)C)c2cc(C)c(O)cc2[C@H]1C
inactive: dose: 57.5 mg/kg/injection, schedule: Q01DX001 (ip), vehicle: Klucel (hydroxypropylcellulose) (HPC) 100 % of control | dose: 115.0 mg/kg/injection, schedule: Q01DX001 (ip), vehicle: Klucel (hydroxypropylcellulose) (HPC) 97 % of control | dose: 230.0 mg/kg/injection, schedule: Q01DX001 (ip), vehicle: Klucel (hydroxypropylcellulose) (HPC) 99 % of control

CN(c1ccccc1)S(=O)c1ccccc1 (stereo not drawn)
inactive: [8] 94 % of control | [11] 103 % of control | [12] 110 % of control

CCCCCCCCn1nnnc1C(F)(F)F
inactive: [13] 100 % of control | [14] 102 % of control | [15] 102 % of control

CC(C)=NNC1=NC(CC(C)C)P(=O)(NCCCCNP2(=O)SC(NN=C(C)C)=NC2CC(C)C)S1 (stereo not drawn)
inactive: [13] 103 % of control | [14] 103 % of control | [15] 101 % of control

C=C(C)C(C(=O)OC(c1ccccc1)c1ccccc1)N1C(=O)C(NC(=O)COc2ccccc2)C1SSc1nc2ccccc2s1 (stereo not drawn)
inactive: [13] 94 % of control | [14] 89 % of control | [15] 93 % of control

ClC1=CCCCC1
inactive: dose: 25.0 mg/kg/injection, schedule: Q01DX009 (ip), vehicle: saline 100 % of control | [9] 100 % of control | [10] 110 % of control

Oc1ccc2c(ccc3[nH]cnc32)c1
inactive: dose: 50.0 mg/kg/injection, schedule: Q01DX005 (ip), vehicle: saline 98 % of control | dose: 100.0 mg/kg/injection, schedule: Q01DX005 (ip), vehicle: saline 101 % of control | dose: 200.0 mg/kg/injection, schedule: Q01DX005 (ip), vehicle: saline 111 % of control

C[n+]1cccc(C2(O)CCCC2)c1
inactive: [11] 113 % of control | [12] 104 % of control | dose: 200.0 mg/kg/injection, schedule: Q01DX009 (ip), vehicle: saline with Tween-80 99 % of control

Cc1cnc(NS(=O)(=O)c2ccc(N)cc2)nc1-c1ccccc1O
inactive: [16] 100 % of control | [17] 93 % of control | [18] 86 % of control

CC(=O)/C(=C(\c1ccccc1)N1CCOCC1)N1CCOCC1
inactive: [5] 99 % of control | [6] 100 % of control | [7] 107 % of control

CCOC(=O)c1ccc(NC(=S)Nc2nccs2)cc1
inactive: [1] 99 % of control | [2] 101 % of control | [3] 95 % of control | [4] 92 % of control | dose: 400.0 mg/kg/injection, schedule: Q01DX009 (ip), vehicle: distilled water + Tween-80 92 % of control

Cc1ncc(/C=N/O)n1Cc1ccccc1
inactive: [16] 99 % of control | [17] 93 % of control | [18] 90 % of control

COc1ccc2c(c1)OC(=O)C(S(=O)(=O)c1ccccc1)C2 (stereo not drawn)
inactive: [13] 102 % of control | [14] 96 % of control | [15] 101 % of control

COc1cc2cc3cc(-c4ccc(Cl)cc4)c(N4CCCCC4)nc3nc2cc1OC
inactive: dose: 3.75 mg/kg/injection, schedule: Q01DX005 (ip), vehicle: saline with Tween-80 92 % of control | dose: 7.5 mg/kg/injection, schedule: Q01DX005 (ip), vehicle: saline with Tween-80 87 % of control | dose: 30.0 mg/kg/injection, schedule: Q01DX005 (ip), vehicle: saline with Tween-80 86 % of control | [18] 91 % of control

CCN=C(c1ccc(NC(=O)c2ccc(C(=O)Nc3ccc(C(=NCC)N(CC)CC)cc3)c(Cl)c2)cc1)N(CC)CC
inactive: dose: 0.05 mg/kg/injection, schedule: Q01DX005 (ip), vehicle: saline 104 % of control | dose: 0.09 mg/kg/injection, schedule: Q01DX005 (ip), vehicle: saline 87 % of control | dose: 0.19 mg/kg/injection, schedule: Q01DX005 (ip), vehicle: saline 97 % of control | dose: 0.39 mg/kg/injection, schedule: Q01DX005 (ip), vehicle: saline 102 % of control and 97 % of control
